Here are results for five compounds from ChEMBL document CHEMBL5030516, “Fighting Shigella by Blocking Its Disease-Causing Toxin” (J Med Chem, 2021).

The nature of this test: Inhibition of C-terminal 6XHis-tagged Shigella dysenteriae Stx1b (21 to 89 residues) expressed in Escherichia coli BL21 for 1 hr by ELISA assay.
In turn, `O=C(O)c1cc(OCCNC(=O)c2cc(OCc3cn([C@@H]4O[C@H](CO)[C@H](O[C@H]5O[C@H](CO)[C@H](O)[C@H](O)[C@H]5O)[C@H](O)[C@H]4O)nn3)cc(OCc3cn([C@@H]4O[C@H](CO)[C@H](O[C@H]5O[C@H](CO)[C@H](O)[C@H](O)[C@H]5O)[C@H](O)[C@H]4O)nn3)c2)cc(OCCNC(=O)c2cc(OCc3cn([C@@H]4O[C@H](CO)[C@H](O[C@H]5O[C@H](CO)[C@H](O)[C@H](O)[C@H]5O)[C@H](O)[C@H]4O)nn3)cc(OCc3cn([C@@H]4O[C@H](CO)[C@H](O[C@H]5O[C@H](CO)[C@H](O)[C@H](O)[C@H]5O)[C@H](O)[C@H]4O)nn3)c2)c1` registered an IC50 of 19.9 µM. With `O=C(NCCCCCCCCCCCCNC(=O)c1cc(OCc2cn([C@@H]3O[C@H](CO)[C@H](O[C@H]4O[C@H](CO)[C@H](O)[C@H](O)[C@H]4O)[C@H](O)[C@H]3O)nn2)cc(OCc2cn([C@@H]3O[C@H](CO)[C@H](O[C@H]4O[C@H](CO)[C@H](O)[C@H](O)[C@H]4O)[C@H](O)[C@H]3O)nn2)c1)c1cc(OCc2cn([C@@H]3O[C@H](CO)[C@H](O[C@H]4O[C@H](CO)[C@H](O)[C@H](O)[C@H]4O)[C@H](O)[C@H]3O)nn2)cc(OCc2cn([C@@H]3O[C@H](CO)[C@H](O[C@H]4O[C@H](CO)[C@H](O)[C@H](O)[C@H]4O)[C@H](O)[C@H]3O)nn2)c1` the figure was 13.5 µM; with `[N-]=[N+]=N[C@@H]1O[C@H](CO)[C@H](O[C@H]2O[C@H](CO)[C@H](O)[C@H](O)[C@H]2O)[C@H](O)[C@H]1O`, 4970 µM; with `O=C(O)c1cc(OCc2cn([C@@H]3O[C@H](CO)[C@H](O[C@H]4O[C@H](CO)[C@H](O)[C@H](O)[C@H]4O)[C@H](O)[C@H]3O)nn2)cc(OCc2cn([C@@H]3O[C@H](CO)[C@H](O[C@H]4O[C@H](CO)[C@H](O)[C@H](O)[C@H]4O)[C@H](O)[C@H]3O)nn2)c1`, 1070 µM.

Compound `O=C(NCCOc1cc(OCCNC(=O)OCc2cn([C@@H]3O[C@H](CO)[C@H](O[C@H]4O[C@H](CO)[C@H](O)[C@H](O)[C@H]4O)[C@H](O)[C@H]3O)nn2)cc(C(=O)O)c1)OCc1cn([C@@H]2O[C@H](CO)[C@H](O[C@H]3O[C@H](CO)[C@H](O)[C@H](O)[C@H]3O)[C@H](O)[C@H]2O)nn1` had an IC50 of 1240 µM.
